Where two headings read alike, the source gives them in different places.
Target: T1, epithelial amiloride-sensitive sodium channel (ENaC) (Homo sapiens, UniProt P37088+P51168+P51170)
T1 sequence (P37088 1-669): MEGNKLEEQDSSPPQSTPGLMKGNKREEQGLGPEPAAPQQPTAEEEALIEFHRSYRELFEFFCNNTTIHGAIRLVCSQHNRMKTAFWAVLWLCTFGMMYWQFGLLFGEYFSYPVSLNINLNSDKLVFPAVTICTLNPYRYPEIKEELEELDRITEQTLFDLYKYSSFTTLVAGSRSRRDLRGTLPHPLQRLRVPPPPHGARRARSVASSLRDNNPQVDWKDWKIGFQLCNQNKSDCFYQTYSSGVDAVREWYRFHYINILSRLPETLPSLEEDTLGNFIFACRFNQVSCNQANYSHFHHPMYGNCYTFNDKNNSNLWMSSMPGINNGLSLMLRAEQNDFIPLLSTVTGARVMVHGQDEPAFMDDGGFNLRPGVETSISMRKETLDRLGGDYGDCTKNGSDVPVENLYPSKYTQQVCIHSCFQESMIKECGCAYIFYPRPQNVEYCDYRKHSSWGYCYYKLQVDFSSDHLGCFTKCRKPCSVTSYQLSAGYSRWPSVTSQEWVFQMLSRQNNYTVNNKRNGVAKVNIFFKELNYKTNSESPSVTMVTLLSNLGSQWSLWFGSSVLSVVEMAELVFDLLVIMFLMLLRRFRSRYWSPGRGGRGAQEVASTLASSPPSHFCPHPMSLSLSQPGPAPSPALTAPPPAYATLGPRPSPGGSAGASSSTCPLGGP
T1 sequence (P51168 1-640): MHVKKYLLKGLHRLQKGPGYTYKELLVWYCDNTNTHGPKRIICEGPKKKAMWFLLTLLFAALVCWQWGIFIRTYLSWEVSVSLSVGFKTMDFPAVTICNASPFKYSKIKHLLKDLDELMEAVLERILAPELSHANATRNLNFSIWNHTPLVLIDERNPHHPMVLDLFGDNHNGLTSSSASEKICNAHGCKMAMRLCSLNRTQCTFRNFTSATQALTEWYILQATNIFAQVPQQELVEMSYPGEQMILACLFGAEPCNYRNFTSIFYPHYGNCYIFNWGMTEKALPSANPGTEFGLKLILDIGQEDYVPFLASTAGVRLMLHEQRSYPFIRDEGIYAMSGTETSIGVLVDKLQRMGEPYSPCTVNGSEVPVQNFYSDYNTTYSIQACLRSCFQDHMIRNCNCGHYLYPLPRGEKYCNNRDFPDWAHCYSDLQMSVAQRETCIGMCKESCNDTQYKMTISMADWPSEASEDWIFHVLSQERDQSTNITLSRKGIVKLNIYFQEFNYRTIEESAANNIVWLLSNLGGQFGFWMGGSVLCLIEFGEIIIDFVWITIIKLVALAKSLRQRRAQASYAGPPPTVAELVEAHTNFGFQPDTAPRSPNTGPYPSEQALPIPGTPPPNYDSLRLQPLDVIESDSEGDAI
T1 sequence (P51170 1-649): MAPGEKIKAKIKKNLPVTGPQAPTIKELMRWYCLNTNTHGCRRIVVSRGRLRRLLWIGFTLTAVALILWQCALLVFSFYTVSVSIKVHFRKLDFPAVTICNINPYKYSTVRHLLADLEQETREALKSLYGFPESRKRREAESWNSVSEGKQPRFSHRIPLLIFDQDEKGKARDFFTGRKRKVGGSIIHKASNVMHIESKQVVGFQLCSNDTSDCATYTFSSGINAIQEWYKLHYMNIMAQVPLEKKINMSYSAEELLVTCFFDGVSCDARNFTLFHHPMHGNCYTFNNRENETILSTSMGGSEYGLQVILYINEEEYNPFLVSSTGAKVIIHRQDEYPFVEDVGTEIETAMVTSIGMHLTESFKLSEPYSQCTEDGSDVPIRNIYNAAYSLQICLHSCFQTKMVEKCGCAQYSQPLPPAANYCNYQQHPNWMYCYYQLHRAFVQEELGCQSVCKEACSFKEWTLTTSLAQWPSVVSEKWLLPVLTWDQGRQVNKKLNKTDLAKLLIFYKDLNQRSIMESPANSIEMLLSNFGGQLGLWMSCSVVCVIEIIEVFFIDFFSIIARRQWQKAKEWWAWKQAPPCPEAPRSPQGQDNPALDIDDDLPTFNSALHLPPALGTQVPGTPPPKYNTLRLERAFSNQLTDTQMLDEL
Type: cell-based
Conditions: for average baseline Isc slope in initial recording period: control slope +0.04
Description: Human bronchial epithelial (HBE) cells were purchased from Cambrex Bioscience Ltd, UK., and were stored frozen in liquid nitrogen until required for use.
HBE cells were amplified by growing in secondary culture according to the suppliers' instructions. Cells were seeded at densities of between 3,000 to 4,000/cm^2 in plastic T-25 culture flasks in bronchial epithelial cell growth medium (BEGM) prepared from bronchial epithelial basal medium (BEBM, Cambrex, UK) supplemented with bovine pituitary extract, hydrocortisone, human epidermal growth factor, epinephrine, transferrin, insulin, retinoic acid, triiodothyronine, gentamicin, and amphotericin B. Cultures were maintained at 37° C. in 5% CO2 in a humidified incubator. Medium was changed every 1 to 3 days until cells were approximately 90% confluent. Cells were then passaged with trypsin EDTA according to the suppliers' instructions, and either used for further cell cultures, or cryopreserved in liquid nitrogen in BEGM containing 10% foetal bovine serum and 10% DMSO.
HBE cells were prepared for electrophysiology studies by growing as tertiary cultures on Snapwell (Corning) 0.4μ clear polyester membrane inserts 1.2 cm^2 coated with collagen IV (Sigma). Cells were seeded at approximately 10^5/cm^2 in 0.5 ml 1:1 DMEM (Cambrex, UK) BEGM containing bovine pituitary extract (50 μg/ml), hydrocortisone (0.5 μg/ml), human epidermal growth factor (0.5 ng/ml), epinephrine (0.5 μg/ml), transferrin (10 μg/ml), insulin (5 μg/ml), retinoic acid (50 nM), and gentamicin (50 μg/ml) (Danahay medium; Danahay et al. 2002). Snapwell inserts were mounted in 6-well plates with 3 ml Danahay medium in the wells, and grown at 37° C. in 5% CO2 in a humidified incubator. Medium was changed every 1 to 3 days. An apical air-liquid interface (ALI) was established as the cells achieved confluence (3 to 6 days) by removal of medium from the centre of the insert. Confluent differentiated bronchial epithelial cells were used for electrophysiology studies at between 15 and 29 days after establishing ALI.
Differentiated HBE cells grown to confluence at an air-liquid interface for 15 to 29 days were used to study substances for ability to achieve long duration down regulation of the epithelial amiloride-sensitive sodium channel (ENaC).
Step 1: Treatment with substance. For each group of cells treated with a substance, 30 μl of 100 times final concentration of substance was added to the 3 ml basolateral culture medium, mixed and 150 μl of the resultant basolateral fluid was transferred to the apical surface for 5 min. For non-treatment control groups of basolateral fluid with no added substance was transferred to the apical surface. After 5 min. equilibration the excess apical fluid was then transferred back to the basolateral side of the culture well.
Step 2: Variable period of incubation with the substance. Dependent on the individual experiment the cells were returned to the 37° C. incubator for periods of 0 min. to 120 min.
Step 3: Period of substance washout with fresh culture medium. For experiments to study the duration of a substance response the HBE cells on Snapwell inserts were washed with fresh culture medium (no added substance) at 37° C. and placed in fresh 6-well plates containing 3 ml fresh culture medium (no added substance) on the basolateral side. […] Step 3 was omitted in studies where the duration of the substance response was not investigated.
Step 4: Wash with Krebs-Ringer buffer and assembly in Ussing chambers. The Snapwell insert cultures of HBE cells were removed from the 6-well plates and washed with excess Krebs-Ringer buffer (120 mM-NaCl, 25 mM-NaHCO3, 3.3 mM-KH2PO4, 0.8 mM-K2HPO4, 1.2 mM-CaCl2, 1.2 mM-MgCl2, 10 mM-glucose) pH7.4 at 37° C. The inserts were then mounted in Ussing chambers (Snapwell diffusion chambers, Costar UK Ltd.). Each side of the chamber was filled with 5 ml Krebs-Ringer buffer and gassed continuously with 95% O2/5% CO2 at 37° C. […]

[1] = down regulation of ENaC activity

`N=C(N)c1ccc2cc(OC(=O)c3ccc(N=C(N)N)cc3)ccc2c1` [6-amidino-2-napthyl 4-guanidinobenzoate] was tested, and the “average baseline Isc slope in initial recording period” value (1 μM 60 min, 3 h 00 min washout, FIG. 7D) was “+0.93 μAmp/min”, the “average baseline Isc slope in initial recording period” value (1 μM 60 min, 4 h 30 min washout, FIG. 7E) was “+0.60 μAmp/min” and the “amiloride ΔIsc compared to control” value (1 μM 60 min, then 4 h 30 min culture medium washout) was “not significantly different”. For the same molecule, the “slope of rising baseline short circuit current relative to untreated controls” value (3 h 00 min in fresh culture, first 15 minutes of recording, FIGS. 7D and 7A) was “over 20 times”, the “time to half maximal inhibition (onset)” value [1] was ≤ 5 min and the “time to maximum down regulation (onset)” value [1] was ≤ 30 min.
